Measurements reported in US7709465B2, “Phosphorous containing compounds including triphenylmethylphosphonate esters for the treatment of melanoma and other cancers” (The Board of Trustees of the University of Illinois, priority 2006, dated 2010).

Assays:
Type in all cases: cell-based
ACHN = test: High-throughput cell death assay I, ACHN; conditions: renal (human), read-out: diethyl TPMP IC50
Text: (§1) Compound CX5 was further tested using the same high-throughput cell death assay I for activity in inducing death in multiple cell lines representing a variety of cancer types.

K562 = test: High-throughput cell death assay I, K562; conditions: K562, leukemia (CML, human); read-out: diethyl TPMP IC50
Text: as §1

U-937 = test: High-throughput cell death assay I, U-937; conditions: U-937, lymphoma (human); read-out: diethyl TPMP IC50
Text: (§2) According to the American Type Culture Collection (ATCC), U-937 is a human cell line of histiocytic lymphoma tissue with monocyte morphology. See Sundstrom C, Nilsson K, Int. J. Cancer 17: 565-577, 1976. Also according to ATCC, HL-60 is a human cell line of a tissue type described as peripheral blood, promyeloblast, and acute promyelocytic leukemia, with myeloblastic morphology. See Gallagher R, et al., Blood 54: 713-733, 1979.
as §1

MDA-MB-231 = test: High-throughput cell death assay I, MDA-MB-231; conditions: Homo sapiens, read-out: diethyl TPMP IC50
Text: as §1

SK-N-SH = test: High-throughput cell death assay I, SK-N-SH; conditions: neuroblastoma (human), read-out: diethyl TPMP IC50
Text: as §1

B16-F10 = test: High-throughput cell death assay I, B16-F10; conditions: B16-F10, melanoma (mouse); read-out: diethyl TPMP IC50
Text: as §1

Hs578t = test: High-throughput cell death assay I, Hs578t; conditions: Hs-578T, breast (human), read-out: diethyl TPMP IC50
Text: as §1

SK-MEL-5 = test: High-throughput cell death assay I, SK-MEL-5; conditions: SK-MEL-5, melanoma (human); read-out: diethyl TPMP IC50
Text: as §1

CRL-1782 = test: High-throughput cell death assay I, CRL-1782; conditions: CRL-1782, melanoma (human); read-out: diethyl TPMP IC50
Text: as §1

HL-60 = test: High-throughput cell death assay I, HL-60; conditions: HL-60, leukemia (human); read-out: diethyl TPMP IC50
Text: as §2, §1

NCI-H226 = test: High-throughput cell death assay I, NCI-H226; conditions: NCI-H226, lung (human); read-out: diethyl TPMP IC50
Text: as §1

## CCOP(=O)(OCC)C(c1ccccc1)(c1ccccc1)c1ccccc1 [CX5]
ACHN
  IC50: 9.69 µM
K562
  IC50: 3.27 µM
U-937
  IC50: 11.6 µM
MDA-MB-231
  IC50: 1.09 µM
SK-N-SH
  IC50: 1.8 µM
B16-F10
  IC50: 0.81 µM
Hs578t
  IC50: 13.2 µM
SK-MEL-5
  IC50: 3.39 µM
CRL-1782
  IC50: 1.41 µM
HL-60
  IC50: 13.2 µM
NCI-H226
  IC50: 6.56 µM
